The text below walks through data of patent US20250041299A1, “THERAPEUTIC TARGETING OF GASTROINTESTINAL STROMAL TUMOR (GIST) BY DISRUPTING THE MENIN-MLL EPIGENETIC COMPLEX” (DANA-FARBER CANCER INSTITUTE, INC., priority 2021, published 2025).

Experiment [1] has as its system GIST-T1 cell line xenografts. The experiment can be described thus: GIST-T1 cell line xenograft, tumor volume. The class given is in vivo, mice. The note with it: for tumor volume relative to baseline: WM-1119 50 mg/kg gavage 3 times daily, one value per animal 1-6. The source says:
Xenograft Models. The PG27 patient derived xenograft was obtained from a patient undergoing clinically indicated surgery and following written informed consent to a Dana-Farber Cancer Institute IRB-approved research protocol. Cryopreserved tumor or the GIST-T1 cell line mixed 1:1 with matrigel were implanted subcutaneously into 6-week-old female nude mice (NU/NU; Charles River Laboratories). GIST-T1 tested negative for mycoplasma and rodent pathogens (Charles River Laboratories). For in vivo assessment of CRISPR/Cas9)-modified cell line growth. GIST-T1/Cas9 cells were treated with the indicated sgRNAs and selected with puromycin in vitro for 14 days prior to bilateral flank implantation. For drug treatment studies, singly engrafted mice were enrolled into treatment groups when tumors reached approximately 100-200 mm^3 in size, as measured by calipers and determined by the tumor volume equation: […]. […] WM-1119 (50 mg/kg gavage 3 times daily. 7 days per week). VTP-50469 (0.1% in chow) or combination treatments. […] Tumors were dissected and fixed in 10% formalin for corollary studies including H&E staining and immunohistochemistry of sectioned tumors. 4 μm sections were cut from fixed and embedded tumors and stained with Ki-67 (1:400, Cell Signaling Technology Cat #9027) and cleaved caspase-3 (1:250, Cell Signaling Technology Cat #9579). Reactions were developed using DAB (Cell Signaling Technology Cat #8059) or NovaRed (Vector Laboratories Cat #SK-4800) substrate kits per manufacturer recommendations. All procedures were conducted under protocols approved by the Institutional Animal Care and Use Committee at Dana-Farber Cancer Institute.

In experiment [2] the test system is GIST-T1 cells. The experiment can be described thus: RNA-seq and GSEA of drug-treated GIST-T1 cells. The class given is cell-based, human. How it is done:
(§1) RNA-seq. Total RNA was isolated using a RNeasy Plus Kit (Qiagen Cat #74136), and concentration measured by Nanodrop (Thermo Fisher Scientific) and quality by TapeStation 4200 (Agilent). Library preparation was performed using the NEBNext Ultra II DNA Library Prep Kit (New England Biolabs Cat #E7645S). Paired-end 150 bp sequencing was performed on a NovaSeq 6000 (Illumina). RNA-seq data were aligned to hg19 using STAR (Dobin et al., Bioinformatics 29:15-21 (2012)) with expression quantification using Cufflinks (Trapnell et al., Nat. Biotechnol. 28:511-5 (2010)) to generate gene expression values in fragments per kilobase of transcript per million mapped reads (FPKM) units. Gene set enrichment analysis (GSEA, RRID: SCR_003199) (Subramanian et al., Proc. Natl. Acad. Sci. USA 102:15545-50 (2005)) was performed using Hallmark gene lists in the Molecular Signatures Database.

For experiment [3], the system named is GIST-T1 cells. The experiment can be described thus: Growth over time assay in GIST-T1. The class given is cell-based, human. The note with it: all doses tested; day 21 cell count. The source says: Cell Culture and Virus Production. All cell lines tested negative for mycoplasma infection on routine surveillance (MilliporeSigma Cat #MP0025-1KT). Human embryonic kidney (HEK) 293 FT (Thermo Fisher Scientific Cat #R70007, RRID: CVCL_6911) and the GIST cell lines GIST-T1 (Cosmo Bio Cat #PMC-GIST01-COS, RRID: CVCL_4976; KIT mutation in exon 11 Δ560-578), GIST430 (RRID: CVCL_7040; KIT mutation in exon 11 Δ560-576), GIST48B (RRID: CVCL_M441: KIT-independent), and GIST882 (RRID: CVCL_7044: KIT mutation in exon 13 K642E) were cultured in Dulbecco's modified Eagle's medium containing 10% FBS, 2 mM L-glutamine, […], and […]. KIT rescue cell lines, which are independent of the KIT enhancer, were generated as previously described (Hemming et al., Cancer Research 79:994-1009 (2019)). Non-commercial cell lines were obtained from the laboratory of Jonathan Fletcher between 2014 and 2016. KIT exons were sequenced to confirm the expected coding mutations and cell identity of GIST cell lines, and cells were thawed from original or derived stocks and used in the described experiments within approximately 3 months. Transfections were performed with X-tremeGene (Roche, Cat #6365809001). Lentiviral production was performed as previously described (Hemming et al., PLOS Biol. 6: e2571-15 (2008)). […]

The subject of experiment [4] is GIST cells. The experiment can be described thus: Cell cycle analysis (propidium iodide, flow cytometry). The class given is cell-based, human. The note with it: 72 hours imatinib. How it is done:
(§2) Cell cycle and apoptosis. […] Cells were trypsinized, washed in PBS and fixed in 70% ethanol. Propidium iodide at 25 μg/mL (Life Technologies Cat #P1304MP) and RNAse A at 0.2 mg/mL (Thermo Fischer Scientific Cat #EN0531) were used to stain nuclear DNA. Analysis was performed on a Guava easyCyte Flow Cytometer (Luminex Corporation), and single cells were assessed for nuclear content using Guava InCyte software. Apoptosis and cell death were measured following 72 h of drug treatment using Guava Nexin Reagent (Luminex Corporation Cat #4500-0450) per manufacturer's recommendations. Non-apoptotic cells stain negative for Annexin V and 7-AAD, early apoptotic cells stain positive for Annexin V but negative for 7-AAD and late apoptotic and dead cells stain positive for both Annexin V and 7-AAD. Staining was assayed on a Guava easyCyte Flow Cytometer and data analyzed using Guava InCyte software.

The subject of the next experiment is GIST-T1 xenografts. The experiment can be described thus: RNA-seq on GIST-T1 xenografts. The note with it: 5 and 10 days of treatment. The class given is in vivo, mice. The procedure:
as §1, with “Database. Xenograft Models. […] VTP-50469 (0.1% in chow) or combination treatments.” for “Database.”

Experiment [5] deals with GIST cells. The experiment can be described thus: Apoptosis and cell death (Annexin V / 7-AAD, Guava Nexin). The class given is cell-based, human. The conditions noted are these: 72-hour treatment, imatinib 0.5 μM. The procedure: as §2, with “Apoptosis and cell death were measured following 72 h of drug treatment using Guava Nexin Reagent (Luminex Corporation Cat #4500-0450) per manufacturer's recommendations.” left out

Values joined by “and” are separate entries in the source; they are usually repeats but may differ in a detail not shown here. Identical values can stand only once.

As to `O=C(NNS(=O)(=O)c1ccccc1F)c1cc(F)cc(-c2ccccn2)c1` [WM-1119, 2-fluoro-N′-(3-fluoro-5-(pyridin-2-yl)benzoyl)benzenesulfonohydrazide], the “tumor volume relative to baseline” value is 100 in experiment [1] (treatment day 1 (baseline)); 175 and 211 and 114 and 133 and 87 and 152 in experiment [1] (treatment day 5, 50 mg/kg); 480 and 322 and 157 and 173 and 131 and 206 in experiment [1] (treatment day 8, 50 mg/kg); 518 and 368 and 287 and 160 and 145 and 260 in experiment [1] (treatment day 12, 50 mg/kg); 527 and 429 and 327 and 181 and 163 and 328 in experiment [1] (treatment day 14, 50 mg/kg); 876 and 501 and 511 and 180 and 268 and 277 in experiment [1] (treatment day 19, 50 mg/kg). Further, the “tumor volume relative to baseline” value in experiment [1] (treatment day 22, 50 mg/kg) was 878 and 409 and 489 and 150 and 205 and 361; in experiment [1] (treatment day 27, 50 mg/kg), 856 and 525 and 558 and 202 and 232 and 317; in experiment [1] (treatment day 29, 50 mg/kg), 874 and 532 and 648 and 199 and 221 and 353. Also, in experiment [1] (end of 28-day treatment period), the “tumor growth compared to vehicle” value is listed as “significant reductions in tumor growth”. The “expression of GIST TFs” value with GIST-T1 cells [2] (GIST-T1, 5 days) is given as “greatest global reduction in TF expression”. The “global gene expression change (RNA-seq) versus DMSO” value in the experiment with GIST-T1 cells [2] (GIST-T1 treated 1 and 5 days) was “modestly altered expression of numerous genes”.
For `CC(C)N(C[C@H]1O[C@@H](n2cnc3c(N)ncnc32)[C@H](O)[C@@H]1O)[C@H]1C[C@@H](CCc2nc3cc(C(C)(C)C)ccc3[nH]2)C1` [EPZ-5676], the “cellular proliferation of GIST-T1 compared to DMSO control or GIST48B” value in the experiment with GIST-T1 cells [3] is reported as “significantly reduced cellular proliferation”. Also, the “HAND1-regulated transcriptional programs (GSEA)” value with GIST-T1 cells [2] (GIST-T1, 5 days) is recorded as “significant disruption”. Besides, the “correlation of transcriptional changes with those of VTP-50469” value with GIST-T1 cells [2] (GIST-T1, 5 days, RNA-seq) is recorded as “highly correlated”.
For `Cc1ccc(NC(=O)c2ccc(CN3CCN(C)CC3)cc2)cc1Nc1nccc(-c2cccnc2)n1` [imatinib], the cell cycle effect entry with GIST cells [4] was “G0/G1 cell cycle arrest”. Further, in the experiment on GIST-T1 xenografts, the “KIT signaling-dependent transcripts TMEM100 and SPRY2 in xenografts” value is on record as “preferentially reduced”; the “expression of genes regulated by HAND1 in xenografts” value was “decrease in the expression of genes regulated by HAND1”. Also, the “apoptosis and cell death versus DMSO” value with GIST cells [5] is “significant increase in early and late-phase apoptosis and cell death”.
